Values joined by “and” are separate entries in the source; they are usually repeats but may differ in a detail not shown here. Equal values may be shown once. Toxic doses and inconclusive results are not listed.
System: P388 leukemia ip, CD2F1 mice, survival T/C
Test: NCI In Vivo Anticancer Drug Screen. Data for tumor model P388 Leukemia (intraperitoneal) in CD2F1 (CDF1) mice
Conditions: endpoint: median survival time, higher = longer survival
In short: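 Mice carrying the transplanted tumor received test compound or vehicle. Survival was recorded in each group, and the value is the treated-group measurement divided by that of the vehicle-treated control group.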

[1] = dose: 100.0 mg/kg/injection, schedule: Q04DX002 (ip), vehicle: saline with Tween-80
[2] = dose: 200.0 mg/kg/injection, schedule: Q04DX002 (ip), vehicle: saline with Tween-80
[3] = dose: 400.0 mg/kg/injection, schedule: Q04DX002 (ip), vehicle: saline with Tween-80
[4] = dose: 50.0 mg/kg/injection, schedule: Q01DX009 (ip), vehicle: saline
[5] = dose: 12.5 mg/kg/injection, schedule: Q01DX005 (ip), vehicle: saline with Tween-80
[6] = dose: 25.0 mg/kg/injection, schedule: Q01DX005 (ip), vehicle: saline with Tween-80
[7] = dose: 50.0 mg/kg/injection, schedule: Q01DX005 (ip), vehicle: Klucel (hydroxypropylcellulose) (HPC)
[8] = dose: 100.0 mg/kg/injection, schedule: Q01DX005 (ip), vehicle: Klucel (hydroxypropylcellulose) (HPC)
[9] = dose: 200.0 mg/kg/injection, schedule: Q01DX005 (ip), vehicle: Klucel (hydroxypropylcellulose) (HPC)
[10] = dose: 50.0 mg/kg/injection, schedule: Q01DX009 (ip), vehicle: saline with Tween-80
[11] = dose: 100.0 mg/kg/injection, schedule: Q01DX009 (ip), vehicle: saline with Tween-80
[12] = dose: 200.0 mg/kg/injection, schedule: Q01DX009 (ip), vehicle: saline with Tween-80
[13] = dose: 6.25 mg/kg/injection, schedule: Q01DX009 (ip), vehicle: saline
[14] = dose: 25.0 mg/kg/injection, schedule: Q01DX009 (ip), vehicle: saline
[15] = dose: 6.25 mg/kg/injection, schedule: Q04DX003 (ip), vehicle: saline
[16] = dose: 12.5 mg/kg/injection, schedule: Q04DX003 (ip), vehicle: saline
[17] = dose: 25.0 mg/kg/injection, schedule: Q04DX003 (ip), vehicle: saline
[18] = dose: 60.0 mg/kg/injection, schedule: Q01DX005 (ip), vehicle: saline with Tween-80
[19] = dose: 120.0 mg/kg/injection, schedule: Q01DX005 (ip), vehicle: saline with Tween-80
[20] = dose: 240.0 mg/kg/injection, schedule: Q01DX005 (ip), vehicle: saline with Tween-80
[21] = dose: 6.25 mg/kg/injection, schedule: Q01DX009 (ip), vehicle: Klucel (hydroxypropylcellulose) (HPC)
[22] = dose: 12.5 mg/kg/injection, schedule: Q01DX009 (ip), vehicle: Klucel (hydroxypropylcellulose) (HPC)

CCC1(O)CC2CN(CCc3c([nH]c4ccccc34)C(C(=O)OC)(c3cc4c(cc3OC)N(C)C3C(O)(C(=O)NCCSSCCNC(=O)C5(O)C(O)C6(CC)C=CCN7CCC8(c9cc(C%10(C(=O)OC)CC%11CN(CCc%12c%10[nH]c%10ccccc%12%10)CC(O)(CC)C%11)c(OC)cc9N(C)C58)C76)C(O)C5(CC)C=CCN6CCC43C65)C2)C1 (centres undefined)
T/C (dose: 0.1 mg/kg/injection, schedule: Q01DX009 (ip), vehicle: saline): 166 % of control | T/C (dose: 0.19 mg/kg/injection, schedule: Q04DX003 (ip), vehicle: saline): 151 % of control | T/C (dose: 0.2 mg/kg/injection, schedule: Q01DX009 (ip), vehicle: saline): 202 % of control | T/C (dose: 0.31 mg/kg/injection, schedule: Q04DX003 (ip), vehicle: saline): 170 % of control | T/C (dose: 0.38 mg/kg/injection, schedule: Q04DX003 (ip), vehicle: saline): 183 % of control | T/C (dose: 0.39 mg/kg/injection, schedule: Q04DX003 (ip), vehicle: saline): 186 % of control | T/C (dose: 0.4 mg/kg/injection, schedule: Q01DX009 (ip), vehicle: saline): 227 % of control | T/C (dose: 0.63 mg/kg/injection, schedule: Q04DX003 (ip), vehicle: saline): 190 % of control | T/C (dose: 0.7 mg/kg/injection, schedule: Q04DX003 (ip), vehicle: saline): 161 % of control | T/C (dose: 0.75 mg/kg/injection, schedule: Q04DX003 (ip), vehicle: saline): 209 % of control and 228 % of control | T/C (dose: 1.0 mg/kg/injection, schedule: Q04DX003 (ip), vehicle: saline): 212 % of control | T/C (dose: 1.25 mg/kg/injection, schedule: Q04DX003 (ip), vehicle: saline): 208 % of control | T/C (dose: 1.6 mg/kg/injection, schedule: Q04DX003 (ip), vehicle: saline): 231 % of control | T/C (dose: 2.4 mg/kg/injection, schedule: Q04DX003 (ip), vehicle: saline): 119 % of control | T/C (dose: 2.5 mg/kg/injection, schedule: Q04DX003 (ip), vehicle: saline): 236 % of control

O=Cc1cc(/C=N/Nc2ccc([N+](=O)[O-])cc2[N+](=O)[O-])nc2[nH]c(=O)ccc12
T/C [1]: 97 % of control | T/C [2]: 104 % of control | T/C [3]: 95 % of control

CCCOCC(=O)O
T/C [4]: 106 % of control | T/C (dose: 100.0 mg/kg/injection, schedule: Q01DX009 (ip), vehicle: saline): 110 % of control | T/C (dose: 200.0 mg/kg/injection, schedule: Q01DX009 (ip), vehicle: saline): 101 % of control

ON(C(=S)Nc1ccc(Cl)cc1)c1ccccc1
T/C [5]: 104 % of control | T/C [6]: 100 % of control | T/C (dose: 50.0 mg/kg/injection, schedule: Q01DX005 (ip), vehicle: saline with Tween-80): 95 % of control and 98 % of control | T/C (dose: 100.0 mg/kg/injection, schedule: Q01DX005 (ip), vehicle: saline with Tween-80): 94 % of control | T/C (dose: 200.0 mg/kg/injection, schedule: Q01DX005 (ip), vehicle: saline with Tween-80): 97 % of control

CCN(CC)[Se]c1ccccc1
T/C [1]: 101 % of control | T/C [2]: 100 % of control | T/C [3]: 98 % of control

O=C1C=C(NCc2nc3ccccc3[nH]2)C(c2ccccc2)N1c1ccccc1 (centres undefined)
T/C [7]: 100 % of control | T/C [8]: 96 % of control | T/C [9]: 93 % of control

CCc1c(C)[nH]n(C(N)=NCCSCc2nc[nH]c2C)c1=O
T/C (dose: 60.0 mg/kg/injection, schedule: Q01DX005 (ip), vehicle: Klucel (hydroxypropylcellulose) (HPC)): 108 % of control | T/C (dose: 120.0 mg/kg/injection, schedule: Q01DX005 (ip), vehicle: Klucel (hydroxypropylcellulose) (HPC)): 100 % of control | T/C (dose: 240.0 mg/kg/injection, schedule: Q01DX005 (ip), vehicle: Klucel (hydroxypropylcellulose) (HPC)): 91 % of control

Cc1ccc(C2N3CCCN2CC3)cc1 (centres undefined)
T/C [10]: 104 % of control | T/C [11]: 102 % of control | T/C [12]: 109 % of control

CCN(CC)CC(C)C1NS(=O)(=O)c2ccccc21 (centres undefined)
T/C (dose: 1.56 mg/kg/injection, schedule: Q01DX009 (ip), vehicle: saline): 107 % of control | T/C (dose: 3.12 mg/kg/injection, schedule: Q01DX009 (ip), vehicle: saline): 98 % of control | T/C [13]: 100 % of control | T/C [14]: 88 % of control | T/C [10]: 86 % of control | T/C [4]: 87 % of control

N#CCCSC(=S)C(C#N)C(=N)c1ccccc1 (centres undefined)
T/C (dose: 25.0 mg/kg/injection, schedule: Q04DX003 (ip), vehicle: Klucel (hydroxypropylcellulose) (HPC)): 108 % of control | T/C (dose: 50.0 mg/kg/injection, schedule: Q04DX003 (ip), vehicle: Klucel (hydroxypropylcellulose) (HPC)): 110 % of control | T/C (dose: 100.0 mg/kg/injection, schedule: Q04DX003 (ip), vehicle: Klucel (hydroxypropylcellulose) (HPC)): 104 % of control and 92 % of control | T/C (dose: 200.0 mg/kg/injection, schedule: Q04DX003 (ip), vehicle: Klucel (hydroxypropylcellulose) (HPC)): 92 % of control | T/C (dose: 400.0 mg/kg/injection, schedule: Q04DX003 (ip), vehicle: Klucel (hydroxypropylcellulose) (HPC)): 96 % of control

O=C1C[N+]2(CCCCC2)c2ccc(Cl)cc2N1
T/C [13]: 104 % of control | T/C [15]: 100 % of control | T/C (dose: 12.5 mg/kg/injection, schedule: Q01DX009 (ip), vehicle: saline): 109 % of control | T/C [16]: 104 % of control | T/C [14]: 104 % of control | T/C [17]: 100 % of control

CCOCC(=O)NC1Cc2cc(OC)c(OC)cc2C1O (centres undefined)
T/C [18]: 100 % of control | T/C [19]: 101 % of control | T/C [20]: 100 % of control

C/C=C(\C)C(=O)N/N=C/c1cccc(OC)c1O
T/C [7]: 95 % of control | T/C [8]: 92 % of control | T/C [9]: 96 % of control

O=C(Nc1c(Cl)cccc1Cl)Oc1ccc(Cl)cc1
T/C [18]: 122 % of control | T/C [19]: 114 % of control

CC(=O)O.CC(=O)O.CC(=O)O.CC(=O)O.[Rh].[Rh]
T/C (dose: 1.56 mg/kg/injection, schedule: Q01DX009 (ip), vehicle: Klucel (hydroxypropylcellulose) (HPC)): 111 % of control | T/C (dose: 3.13 mg/kg/injection, schedule: Q01DX009 (ip), vehicle: Klucel (hydroxypropylcellulose) (HPC)): 117 % of control | T/C [21]: 99 % of control | T/C [15]: 100 % of control | T/C [22]: 115 % of control | T/C [16]: 100 % of control | T/C [17]: 122 % of control

COC(=O)/C=C(\C)NC(=NC(C)(C)C)c1ccccc1
T/C [10]: 98 % of control | T/C [11]: 101 % of control | T/C [12]: 94 % of control

CCCCCCCC(=O)OOC(C)(C)C
T/C [18]: 105 % of control | T/C [19]: 105 % of control | T/C [20]: 108 % of control

CCOC(=O)C(CO)NC(=O)c1cnc2ccccc2c1 (centres undefined)
T/C [18]: 99 % of control | T/C [19]: 97 % of control

C/C(=C\C=C/c1ccoc1)C(=O)c1cc(C)co1
T/C [21]: 106 % of control | T/C [22]: 103 % of control and 95 % of control | T/C (dose: 25.0 mg/kg/injection, schedule: Q01DX009 (ip), vehicle: Klucel (hydroxypropylcellulose) (HPC)): 106 % of control and 96 % of control | T/C (dose: 50.0 mg/kg/injection, schedule: Q01DX009 (ip), vehicle: Klucel (hydroxypropylcellulose) (HPC)): 115 % of control and 96 % of control | T/C (dose: 100.0 mg/kg/injection, schedule: Q01DX009 (ip), vehicle: Klucel (hydroxypropylcellulose) (HPC)): 104 % of control

CC(=O)Nc1ccc(C(F)(F)F)cc1
T/C (dose: 25.0 mg/kg/injection, schedule: Q01DX009 (ip), vehicle: suspension in saline): 94 % of control | T/C (dose: 50.0 mg/kg/injection, schedule: Q01DX009 (ip), vehicle: suspension in saline): 94 % of control | T/C (dose: 100.0 mg/kg/injection, schedule: Q01DX009 (ip), vehicle: suspension in saline): 86 % of control

CCOC(=O)/C(C#N)=C/N1CCCC1
T/C (dose: 6.25 mg/kg/injection, schedule: Q01DX005 (ip), vehicle: saline with Tween-80): 107 % of control | T/C [5]: 96 % of control | T/C [6]: 104 % of control

Source: PubChem BioAssay AID330 (DTP/NCI, 2004)
